Test results taken from patent US20230381142A1, “ANTILEISHMANIAL COMPOUNDS, COMPOSITIONS AND USE THEREOF” (TRUSTEES OF BOSTON UNIVERSITY, priority 2022, published 2023).
Like-named read-outs stand apart in the source and are kept apart here.

Experiments:
[1] = tested on: L. donovani intracellular amastigotes in B10R cells; assay: UCSD L. donovani infection assay (Assay Conditions D); assay type: cell-based; conditions: B10R cells; for L. donovani amastigotes EC75 (B10R cells): footnote d; for EC50: Leishmania donovani, values marked d, read-out: L. donovani amastigotes EC50 (B10R cells)
How it was run: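 Compounds, either single-point at 10 μM or 10-point 2-fold series (3 technical, 2 biological replicates), were incubated 72 h at 37° C. with B10R host cells co-seeded with day-7 stationary L. donovani promastigotes (20:1). DAPI-stained nuclei imaging yielded intracellular parasite EC50 and host-cell CC50.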

[2] = UCSD infection assay, host cell cytotoxicity (CC50); assay type: cell-based; conditions: mouse, B10R host cells infected with L. donovani
Description: (§1) Assay Conditions D: B10R cells (CVCL_0155) were seeded at 300 cells/well, and L. donovani WT promastigotes in stationary phase (7th day after passage) were added at 6,000 parasites/well (ratio of 20 parasites/cell). Both cells and parasites were seeded in DMEM High-Glucose medium (Gibco, cat. no. 11995065) containing 5% Fetal Bovine Serum (Sigma-Aldrich, cat. no. F2442) and 1% Penicillin-Streptomycin (Gibco, cat. no. 15140122). Cells and parasites were incubated in the presence of the compounds for 72 h at 37° C. and 5% C02. Plates were then fixed with 4% formaldehyde solution for at least 1 h, then washed with 1×PBS and stained with 5 μg/mL DAPI. Plates were read using an ImageXpress microscope (Molecular Devices) and analyzed by MetaXpress software (Molecular Devices) using a custom module optimized for this assay. […] Compounds were tested in a 10-point 2-fold serial dilution in 3 technical replicates, and 2 biological replicates. After 72 h, plates were fixed and stained with DAPI as described above. Images were acquired on an ImageXpress microscope, and analyzed using the MetaXpress custom module.
as §1, with “Compounds were obtained as 0.2 μmoles of dried film for primary single point screening. Each compound was diluted in DMSO to 10 μM final testing concentration. These compounds were tested in 2 biological replicates. The compounds were pre-spotted onto 384-well assay plates in single concentration.” for “Assay Conditions D:”, “CO2.” for “C02.”, “module. The DRCs were plotted, half-effective concentration (EC50) and half-cytotoxic concentration (CC50) were calculated using GraphPad Prism Software, version 6.05 (GraphPad Software, San Diego, CA).” for “module.”

[3] = tested on: L. donovani intracellular amastigotes infecting THP-1 macrophages; assay: GSK intramacrophage L. donovani assay (LD AMMAC, inMac; Assay Conditions C); assay type: cell-based; conditions: Leishmania donovani
How it was run: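 EC50 values come from counting amastigotes per infected THP-1 macrophage (AMMAC). Parallel read-outs give percentage of infected cells per well (INFCELL) and a macrophage-number toxicity EC50 (MAC).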

[4] = GSK inMac assay, host cell toxicity readout (LD MAC); assay type: cell-based, human; conditions: human
How it was run: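 MAC EC50 reflects THP-1 host cell counts, measured within GSK's inMac L. donovani infection assay that also scores intracellular amastigotes and infected-cell percentage.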

[5] = THP-1 cells, values marked c, read-out: L. donovani amastigotes EC50 (THP-1 cells)
[6] = footnote c, read-out: THP-1 Host Cell CC50
[7] = values marked c: THP-1 cells, read-out: L. donovani amastigotes EC50 (μM, THP-1 or B10R cells)

SMILES | L. donovani amastigotes EC75 (μM, B10R cells) [1] | CC50 at 72 h ([2]; host B10R cells) | also measured
Cc1ccc(N2C(=O)c3[nH]nc(CC(C)C)c3C2c2ccc(Cl)cc2F)cn1 (centres unmarked) [BUCMD00627] | >10 µM | 10 µM | –
Cc1ccc(N2C(=O)c3[nH]nc(CC(C)C)c3C2c2ccccc2C)cn1 (centres unmarked) [BUCMD00628] | 3.2 µM | 15.8 µM | –
Cc1ccc(N2C(=O)c3[nH]nc(CC(C)C)c3C2c2ccccc2Cl)cn1 (centres unmarked) [BUCMD00640] | 3.4 µM | 12.6 µM | –
Cc1ccc(N2C(=O)c3[nH]nc(CC(C)C)c3C2c2ccc(Br)cc2F)cn1 (centres unmarked) [BUCMD00641] | >10 µM | 12.6 µM | –
Cc1ccc(N2C(=O)c3[nH]nc(CC(C)C)c3C2c2ccc(F)cc2Cl)cn1 (centres unmarked) [BUCMD00642] | 1.3 µM | 10 µM | –
COc1ccc(N2C(=O)c3[nH]nc(CC(C)C)c3C2c2ccccc2C)nc1 (centres unmarked) [BUCMD00645] | >10 µM | 20 µM | –
COc1ccc(N2C(=O)c3[nH]nc(CC(C)C)c3C2c2ccc(F)cc2C)nc1 (centres unmarked) [BUCMD00646] | >10 µM | 12.6 µM | –
COc1ccc(N2C(=O)c3[nH]nc(CC(C)C)c3C2c2ccccc2Cl)nc1 (centres unmarked) [BUCMD00647] | >10 µM | 10 µM | –
COc1ccc(N2C(=O)c3[nH]nc(CC(C)C)c3C2c2ccc(Br)cc2F)nc1 (centres unmarked) [BUCMD00648] | >10 µM | 3.98 µM | –
CC(C)Cc1n[nH]c2c1C(c1ccccc1C(F)(F)F)N(c1cncc(F)c1)C2=O (centres unmarked) [BUCMD00699] | 1.4 µM | 5.01 µM | –
CC(C)Cc1n[nH]c2c1C(c1ccccc1F)N(c1cncc(F)c1)C2=O (centres unmarked) [BUCMD00700] | 1.3 µM | 10 µM | –
CC(C)Cc1n[nH]c2c1C(c1ccc(F)cc1Cl)N(c1ccc(C(=O)N3CCCC3)cc1)C2=O (centres unmarked) [BUCMD00711] | >10 µM | 5.01 µM | –
CC(C)Cc1n[nH]c2c1C(c1ccc(Cl)cc1Cl)N(c1ccc(C(=O)N3CCCC3)cc1)C2=O (centres unmarked) [BUCMD00712] | >10 µM | 1.58 µM | –
Cc1ccccc1C1c2c(CC(C)C)n[nH]c2C(=O)N1c1ccc(C(=O)N2CCCC2)cc1 (centres unmarked) [BUCMD00713] | >10 µM | 10 µM | –
CC(C)Cc1n[nH]c2c1C(c1ccc(F)cc1F)N(c1ccc(C(=O)N3CCCC3)cc1)C2=O (centres unmarked) [BUCMD00714] | >10 µM | 10 µM | –
Cc1cc(F)ccc1C1c2c(CC(C)C)n[nH]c2C(=O)N1c1ccc(N2CCN(C)CC2)nc1 (centres unmarked) [BUCMD00717] | 1.0 µM | 7.94 µM | –
CC(C)Cc1n[nH]c2c1C(c1ccc(F)cc1Cl)N(c1ccc(N3CCN(C)CC3)nc1)C2=O (centres unmarked) [BUCMD00718] | 1.0 µM | 6.31 µM | –
CC(C)Cc1n[nH]c2c1C(c1ccc(Cl)cc1Cl)N(c1ccc(N3CCN(C)CC3)nc1)C2=O (centres unmarked) [BUCMD00719] | >10 µM | 2 µM | –
CC(C)Cc1n[nH]c2c1C(c1ccc(F)cc1F)N(c1ccc(N3CCN(C)CC3)nc1)C2=O (centres unmarked) [BUCMD00722] | >10 µM | 7.94 µM | –

SMILES | L. donovani amastigotes EC75 (μM, B10R cells) [1] | CC50 at 72 h ([2]; host B10R cells) | also measured
CC(C)Cc1n[nH]c2c1C(c1ccccc1C(F)(F)F)N(c1ccc(N3CCN(C)CC3)nc1)C2=O (centres unmarked) [BUCMD00723] | 10.0 µM | 7.94 µM | –
CC(C)Cc1n[nH]c2c1C(c1ccccc1F)N(c1ccc(N3CCN(C)CC3)nc1)C2=O (centres unmarked) [BUCMD00724] | >10 µM | 6.31 µM | –
CC(C)Cc1n[nH]c2c1C(c1ccc(F)c(F)c1)N(c1ccc(N3CCN(C)CC3)nc1)C2=O (centres unmarked) [BUCMD00725] | >10 µM | 7.94 µM | –
COc1ncc(N2C(=O)c3[nH]nc(CC(C)C)c3C2c2ccc(F)cc2Cl)cc1F (centres unmarked) [BUCMD00730] | – | – | L. donovani amastigotes EC75 (B10R cells) [1]: 0.6 µM; CC50 at 72 h ([2]; footnote d): 10 µM
C#CCCCCn1nc(CC(C)C)c2c1C(=O)N(c1ccc(OC)cc1)C2c1ccc(F)cc1 (centres unmarked) [BUCMD00741] | >10 µM | 10 µM | –
COc1ccc(N2C(=O)c3[nH]nc(CC(C)C)c3[C@@H]2c2cccc(C(F)(F)F)c2)cn1 [BUCMD00805] | – | – | EC50 [3, 5]: 5 µM; CC50 [4, 6]: 25.1 µM; L. donovani amastigotes EC75 (B10R cells) [1]: 1.6 µM; CC50 at 72 h ([2]; footnote d): 6.31 µM
CC(C)Cc1n[nH]c2c1C(c1ccccc1Cl)N(c1ccc(N(C)C)cc1)C2=O (centres unmarked) [CMLD010920] | – | – | CC50 [4, 6]: 7.3 µM; L. donovani amastigotes EC75 (B10R cells) [1]: 0.3 µM; EC50 [1]: 0.3 µM; CC50 at 72 h ([2]; footnote d): 6.31 µM
COc1ccc(N2C(=O)c3[nH]nc(CC(C)C)c3[C@H]2c2ccccc2Br)cn1 [CMLD010977] | 1.0 µM | 15.8 µM | EC50 [3, 7]: 2 µM; CC50 ([4]; host THP-1 cells): 25.1 µM
CC(C)Cc1n[nH]c2c1C(c1ccc(F)cc1)N(c1ccc(N(C)C)cc1)C2=O (centres unmarked) [CMLD011039] | – | – | EC50 [3, 5]: 1 µM; CC50 [4, 6]: 39.8 µM; L. donovani amastigotes EC75 (B10R cells) [1]: 0.3 µM; CC50 at 72 h ([2]; footnote d): 6.31 µM
CC(C)Cc1n[nH]c2c1C(c1ccc(F)cc1)N(c1ccc3c(c1)OCCO3)C2=O (centres unmarked) [CMLD011101] | – | – | EC50 [3, 5]: 3.2 µM; CC50 [4, 6]: 25.1 µM; L. donovani amastigotes EC75 (B10R cells) [1]: 1.2 µM; CC50 at 72 h ([2]; footnote d): 15.8 µM
COc1ccc(N2C(=O)c3[nH]nc(CC(C)C)c3C2c2ccc(C)s2)cc1 (centres unmarked) [CMLD011123] | 2.5 µM | 15.8 µM | EC50 [3, 7]: 5 µM; CC50 ([4]; host THP-1 cells): 20 µM
CC(C)Cc1n[nH]c2c1C(c1cccc(C(F)(F)F)c1)N(c1ccc3c(c1)OCO3)C2=O (centres unmarked) [CMLD011139] | >10 µM | 12.6 µM | EC50 [3, 7]: 3.2 µM; CC50 ([4]; host THP-1 cells): 20 µM
CC(C)Cc1n[nH]c2c1C(c1ccccc1Br)N(c1ccc3c(c1)OCC(=O)N3)C2=O (centres unmarked) [CMLD011497] | 0.9 µM | 6.31 µM | EC50 [3, 7]: 2 µM; CC50 ([4]; host THP-1 cells): 20 µM
COc1ccccc1C1c2c(CC(C)C)n[nH]c2C(=O)N1c1ccc(Br)cc1 (centres unmarked) [CMLD011549] | – | – | CC50 [4, 6]: 1.1 µM; L. donovani amastigotes EC75 (B10R cells) [1]: 0.3 µM; EC50 [1]: 0.2 µM; CC50 at 72 h ([2]; footnote d): 1 µM
CC(C)Cc1n[nH]c2c1C(c1ccccc1Br)N(c1ccc(Br)cc1)C2=O (centres unmarked) [CMLD011551] | – | – | CC50 [4, 6]: 5 µM; L. donovani amastigotes EC75 (B10R cells) [1]: 0.5 µM; EC50 [1]: 0.4 µM; CC50 at 72 h ([2]; footnote d): 6.31 µM
CC(C)Cc1n[nH]c2c1C(c1c(Cl)cccc1Cl)N(c1ccc(N(C)C)cc1)C2=O (centres unmarked) [CMLD011553] | 3.0 µM | 5.01 µM | EC50 [3, 7]: 4 µM; CC50 ([4]; host THP-1 cells): 20 µM
COc1ccc(N2C(=O)c3[nH]nc(CC(C)C)c3C2c2ccccc2OC)cc1F (centres unmarked) [CMLD011566] | – | – | CC50 [4, 6]: 0.3 µM; L. donovani amastigotes EC75 (B10R cells) [1]: 0.4 µM; EC50 [1]: 0.4 µM; CC50 at 72 h ([2]; footnote d): 0.316 µM
COc1ccc(N2C(=O)c3[nH]nc(CC(C)C)c3C2c2ccccc2OC)cn1 (centres unmarked) [CMLD011567] | – | – | CC50 [4, 6]: > 20 µM; L. donovani amastigotes EC75 (B10R cells) [1]: 1.2 µM; EC50 [1]: 1.1 µM; CC50 at 72 h ([2]; footnote d): 20 µM
COc1ccc(N2C(=O)c3[nH]nc(CC(C)C)c3C2c2ccccc2Br)cc1F (centres unmarked) [CMLD012217] | – | – | CC50 [4, 6]: 3 µM; L. donovani amastigotes EC75 (B10R cells) [1]: 0.5 µM; EC50 [1]: 0.4 µM; CC50 at 72 h ([2]; footnote d): 3.98 µM
